Here are results for 6 compounds from US10583141B2, “N-substituted hydroxamic acids with carbon-based leaving groups as efficient HNO donors and uses thereof” (The Johns Hopkins University, priority 2015, dated 2020).

A short description of data set [1]: Stability (half-life of donor decomposition) via 1H NMR protocol. Format: physicochemical. The following applies: 5 mM donor in 10% DMSO-d6, 10% D2O, 80% H2O, phosphate buffer (0.25M) with DTPA (0.2 mM), pH 7.4, 37° C., under argon. The source says:
A ^1H NMR spectroscopy protocol was used to measure the half-life of donor decomposition by quantifying donor and the corresponding byproduct as a function of time (Guthrie, D. A.; Ho, A.; Takahashi, C. G.; Collins, A.; Morris, M.; Toscano, J. P. J. Org. Chem. 2015, 80, 1338-1348; and Guthrie, D. A.; Nourian, S.; Takahashi, C. G.; Toscano, J. P. J. Org. Chem. 2015, 80, 1349-1356). Based on distinctive chemical shifts of the compounds of the disclosure and their corresponding byproducts, the decomposition of the compounds of the disclosure and release of their byproduct was easily monitored. Utilizing this assay, the half-lives of particular compounds of the disclosure were determined under physiologically relevant conditions (Table 2).

The nature of data set [2]: Nitroxyl (HNO) production via N2O quantification in the headspace (GC), relative to Angeli's salt. The following applies: N2O headspace analysis, 0.1 mM, 37° C. (SEM ± 5%; n = 3). An excerpt: Nitrous oxide (N2O) is produced via the dimerization and dehydration of HNO, and is the most common marker for nitroxyl production (Fukuto et al., Chem. Res. Toxicol. 18:790-801 (2005)). […] Using either nitrous oxide gas or Angeli's salt (“AS”) as a standard, the relative amounts of N2O released from compounds of the disclosure is examined via gas chromatography (“GC”) headspace analysis.
Another procedure for determining N2O released from compounds of the disclosure is as follows. A Varian CP-3800 instrument equipped with a 1041 injector, electron capture detector, and a 25 m 5 Å molecular sieve capillary column was applied for the analysis of nitrous oxide (N2O). Grade 5.0 nitrogen was used as both the carrier (8 mL/min) and the make-up (22 mL/min) gas. For all the measurements, the column oven temperature was kept constant at 150° C., and the injector oven and the detector oven were held at 200° C. and 300° C., respectively. A 100 μL gastight syringe with a sample-lock was used for all gas injections. Samples were prepared in 6 mL Wheaton Clr headspace vials with volumes pre-measured for sample uniformity (actual vial volume ranges from 5.8-6.3 mL). Vials were charged with 3 mL of phosphate buffer containing the metal chelator, diethylenetriaminepentaacetic acid (DTPA), and fit with rubber septa and 20 mm aluminum seals. The vials were purged with argon and equilibrated for at least 10 minutes at 37° C. in a dry block heater. A 10 mM stock solution of Angeli's salt (AS) was prepared in 10 mM sodium hydroxide, and compounds of the disclosure (10 mM) were prepared in acetonitrile and used immediately after preparation. 30 μL of the stock solutions was transferred into vials using a gastight syringe, yielding final concentrations of 0.1 mM. Substrates were then incubated long enough to ensure complete decomposition and equilibration of N2O with the headspace. For each sample, 60 μL of the headspace was sampled and injected three times using a gastight syringe with a sample lock. The N2O yield was averaged and reported relative to the standard, Angeli's salt. HNO yields were measured either at the half-life of the donor or after complete decomposition of the donor and are reported relative to the standard HNO donor, Angeli's salt, as determined by N2O headspace analysis (SEM±5%; n=3).

Data set [3] can be described thus: Decomposition kinetics via UV-VIS protocol (growth of pyrazolone byproduct absorbance). The data set is classed as physicochemical. The following applies: phosphate buffer; for decomposition (UV-VIS, in words): pH 7.4, 37° C. The method, then: (§1) A UV-VIS protocol was used to determine the decomposition kinetics of compounds 1, 3, 5 and 6. According to this protocol, decomposition of Compound 5, was monitored by examining the growth of the distinctive absorbance of the pyrazolone byproduct (λ=265 nm) at pH 7.4 and 37° C. in phosphate buffer as a function of pH (Guthrie, D. A., Kim, N. Y., Siegler, M. A.; Moore, C. D., Toscano, J. P. J. Am. Chem. Soc. 2012, 134, 1962-1965; and Guthrie, D. A.; Ho, A.; Takahashi, C. G.; Collins, A., Morris, M.; Toscano, J. P. J. Org. Chem. 2015, 80, 1338-1348). The decomposition of rate is pH-dependent, and based on the experimental kinetic data, the pKa of Compound 5 was estimated to be 10.7. Following this protocol, the decomposition kinetics for compounds […] were determined. […] Thus, the pKa values of Compounds 1 (10.0) and 3 (9.1) in 50% (v/v) aqueous ethanol were measured by titration with NaOH solution.

A short description of data set [4]: pKa by titration with NaOH solution. As to conditions: 50% (v/v) aqueous ethanol. Format: physicochemical. The method, then: as §1
The nature of data set [5]: Stability in the presence of a pyrazolone by 1H NMR (mechanistic study). The data set is classed as physicochemical. On the procedure:
A ^1H NMR Spectroscopy Protocol was used to confirm the formation of nitroso carbonyls following decomposition of compound 5. In this protocol, 0.5 mM Compound 5 was incubated in the presence of 0.5 mM 3,4-dimethyl-N-phenylpyrazolone in 0.25 M phosphate buffer with 0.2 mM DTPA at pH 7.4, 80% H2O, 10% D2O, and 10% DMSO-d6 at 37° C. under argon. Spectra were collected at the start of the experiment and after complete decomposition.
To eliminate the possibility of direct attack of 3,4-dimethyl-1-phenyl-1H-pyrazol-5(4H)-one on the amidic nitrogen of hydroxamic acid moiety in Compound 1 through a SN2 reaction (Glover, S. A.; Rauk, A.; Buccigross, J. M.; Campbell. J. J.; Hammond, G. P.; Guoning, M.; Andrews. L. E.: Gillson, A. M. Can. J. Chem. 2005, 83, 1492-1509), the stability of Compound 11 in the presence of 4-(acetyl-O-methoxyoxime)-N-phenyl-3-methyl-pyrazolone was confirmed by ^1H NMR.

Setting [6] is: HNO yield at the half-life of the donor.
[7] abbreviates: HNO yield after complete decomposition of the donor.

Marks after values point to notes of the source that are not given here. A value given as a limit tells only on which side of the number the result lay.

In the case of `CO/N=C(\C)C1(N(O)C(C)=O)C(=O)N(c2ccccc2)N=C1C` (stereo not shown) [Compound 1, N-hydroxy-N-(4-(1-(methoxyimino)ethyl)-3-methyl-5-oxo-1-phenyl-4,5-dihydro-1H-pyrazol-4-yl)acetamide], in data set [1], the half-life (commonly the time needed for the level to fall by half in the phase considered) at 5 mM is 120 h. Besides, in data set [2] (setting [6]), the “% HNO” value is reported as 82^a %. In addition, in data set [3], the “decomposition (UV-VIS, in words)” value is given as “stable for 1 hour”. For the same compound, the pKa (in general, the negative logarithm of the acid dissociation constant) in data set [4] came to 10.
As to `CO/N=C(\C)C1(N(O)C(=O)OC)C(=O)N(c2ccccc2)N=C1C` (stereo not shown) [Compound 3, Methyl hydroxy(4-(1-(methoxyimino)ethyl)-3-methyl-5-oxo-1-phenyl-4,5-dihydro-1H-pyrazol-4-yl)carbamate], the half-life at 5 mM in data set [1] was 48 h. Further, the “% HNO” value in data set [2] (setting [6]) is 104^a %. Besides, in data set [3], the “decomposition (UV-VIS, in words)” value is on record as “decomposed slowly”. This compound also yielded a pKa in data set [4] of 9.1.
Compound `CO/N=C(\C)C1(N(O)C(=O)OC)C(=O)N(C)N=C1C` (stereo not shown) [Compound 4, Methyl hydroxy(4-(1-(methoxyimino)ethyl)-1,3-dimethyl-5-oxo-4,5-dihydro-1H-pyrazol-4-yl)carbamate] showed a half-life at 5 mM in data set [1] of 96 h. The “% HNO” value in data set [2] (setting [6]) is on record as 94^a %.
With `CO/N=C(\C)C1(N(O)C(=O)N(C)C)C(=O)N(c2ccccc2)N=C1C` (stereo not shown) [Compound 5, 1-hydroxy-1-(4-(1-(methoxyimino)ethyl)-3-methyl-5-oxo-1-phenyl-4,5-dihydro-1H-pyrazol-4-yl)-3,3-dimethylurea], the half-life at 5 mM in data set [1] is 0.417 h. The “% HNO” value in data set [2] (setting [7]) is >95^b %. Also, the pKa in data set [3] (estimated from pH-dependent decomposition kinetic data, 37° C.) is 10.7.
Compound `CO/N=C(\C)C1(N(O)C(=O)N(C)C)C(=O)N(C)N=C1C` (stereo not shown) [Compound 6, 1-hydroxy-1-(4-(1-(methoxyimino)ethyl)-1,3-dimethyl-5-oxo-4,5-dihydro-1H-pyrazol-4-yl)-3,3-dimethylurea] gave a half-life at 5 mM in data set [1] of 0.767 h. The “% HNO” value in data set [2] (setting [7]) is >95^b %.
For `CC(=O)N(O)C1(C)C(=O)N(c2ccccc2)N=C1C` (stereo not shown) [Compound 11, N-hydroxy-N-(3,4-dimethyl-5-oxo-1-phenyl-4,5-dihydro-1H-pyrazol-4-yl)-acetamide], the “stability in the presence of 4-(acetyl-O-methoxyoxime)-N-phenyl-3-methyl-pyrazolone” value in data set [5] is recorded as “confirmed”.
